Measured values: PMC4964015 (Annals of Clinical Microbiology and Antimicrobials, 2016)
Peptide text beside a SMILES is read from it.

What was measured:
S. meliloti cells [1] = assay: Membrane potential, DiOC2(3) red/green fluorescence (BacLight kit); format: cell-based, Sinorhizobium meliloti; conditions: BacLight Bacterial Membrane Potential Kit
Source text: For the measurements, the BacLight™ Bacterial Membrane Potential Kit (Thermo Fisher Scientific) was used according to the instructions of the manufacturer.

[2] = system: S. meliloti outer membrane; assay: Outer membrane permeability, NPN fluorescence; format: cell-based, Sinorhizobium meliloti; conditions: for outer membrane permeabilization (NPN fluorescence): peptides tested at 50, 25, 12.5 and 6.25 µg/ml, 5 mM HEPES pH 7.2, 50 µg/ml = NCR335 6.4 µM, NCR247 16.6 µM, NCR001 9.5 µM, PMB 36 µM
Description: The cells from exponentially growing cultures were collected, washed and suspended in 5 mM HEPES buffer (pH=7.2). 80 µl NPN of 25 µM concentration and 100 µl of bacterial suspension (OD600=0.1) were pipetted into the wells of a black 96-well microtiter plate and the fluorescence were measured for 3 cycles (9 seconds/cycle) in a FLUOstar OPTIMA plate-reader (BMG Labtech). After the three cycles, 20 µl of peptide was added and the fluorescence were measured for an additional 18 cycles.

[3] = system: rhizobia (Sinorhizobium meliloti); assay: Killing assay in phosphate buffer (number of living cells); format: cell-based; conditions: 50 µg/ml peptide in phosphate buffer for three hours
Description: (§1) In this study, we investigated how NCR247 and NCR335 affect the cell surface as well as the outer and inner membranes (OM and IM respectively) of the α-Proteobacterium S. meliloti, the natural target of the peptides. We compared the effect of these NCR peptides to that of Polymyxin B (PMB), which alters bacterial outer membrane permeability and then disrupts the cytoplasmic membrane of gram-negative bacteria. […] NCR247 and NCR335 inhibited the growth of rhizobia at 25 and 12 µg/ml (Minimal Inhibitory Concentration), respectively, in broth microdilution assays, and were able to decrease the number of living cells by two and four orders of magnitude, respectively, when they were used at 50 µg/ml concentration in phosphate buffer for three hours. In other—including clinically relevant—bacteria, the minimal bactericid concentration of the peptides varied between 20 and 125 µg/ml (Additional file 1). […] Prolonging the treatment for 3 h caused no further changes, cells treated for 1 and 3 h were alike. These observations were in line with reported surface corrugation of the E. coli cell envelope by NCR247 [18]. Similar study on the NCR335 treated S. meliloti cultures could not be performed as the bacteria lost their attachment to the poly-L-lysine coated muscovite mica surface.

[4] = system: Sinorhizobium meliloti AK631; assay: Minimal bactericid concentration (MBC); format: cell-based
[5] = system: gram-negative and gram-positive bacteria; conditions: cited from earlier work
Source text: (§2) Extremely rich sources of AMPs are the plants where up to several hundreds of peptide-coding genes can be expressed in specific organs constitutively or induced locally or systematically by the attack of pathogenic microbes. […] In Medicago truncatula nodule cells infected with Sinorhizobium meliloti, hundreds ...

fungi = conditions: cited from earlier work
Source text: as §2

Escherichia coli cells = conditions: cited from earlier work
Source text: as §2

Pseudomonas aeruginosa = assay: Minimal bactericid concentration (MBC); format: cell-based
Escherichia coli K12 = assay: Minimal bactericid concentration (MBC); format: cell-based
Lactobacillus plantarum = assay: Minimal bactericid concentration (MBC); format: cell-based
Listeria monocytogenes = assay: Minimal bactericid concentration (MBC); format: cell-based
Staphylococcus aureus = assay: Minimal bactericid concentration (MBC); format: cell-based
[6] = system: rhizobia (Sinorhizobium meliloti); assay: Broth microdilution assay (Minimal Inhibitory Concentration); format: cell-based; conditions: growth inhibition of rhizobia
Description: as §1

Salmonella typhimurium = assay: Minimal bactericid concentration (MBC); format: cell-based
S. meliloti cells [7] = assay: Atomic force microscopy of immobilized cells; format: cell-based, Sinorhizobium meliloti
Source text: Details of the measurements and sample preparations are described in Reference 18.
Nagy K, Mikulass KR, Vegh AG, Kereszt A, Kondorosi E, Varo G, Szegletes Z: Interaction of cysteine-rich cationic antimicrobial peptides with intact bacteria and model membranes. Gen Physiol Biophys 2015, 34(2):135-144

Row | Molecule | effect on membrane potential (DiOC2(3) red/green fluorescence ratio) (S. meliloti cells [1]) | outer membrane permeabilization (NPN fluorescence) [2] | decrease of the number of living cells [3] | MBC [4] | antimicrobial activity against gram-negative and gram-positive bacteria [5] | antimicrobial activity against fungi (fungi) | surface roughness of treated Escherichia coli cells (AFM) (Escherichia coli cells) | MBC (Pseudomonas aeruginosa) | MBC (Escherichia coli K12) | MBC (Lactobacillus plantarum) | MBC (Listeria monocytogenes) | MBC (Staphylococcus aureus) | Minimal Inhibitory Concentration [6] | MBC (Salmonella typhimurium) | average height of bacteria (AFM) (S. meliloti cells [7]; 25 µg/ml, average height ~600 nm) | cell surface roughness / surface alterations (AFM) (S. meliloti cells [7]; treatment for 1 h, 3 h caused no further changes) | outer membrane damage (NPN fluorescence) ([2]; 25 µg/ml, compared with 50 µg/ml) | outer membrane damage (NPN fluorescence) ([2]; 50 µg/ml) | outer membrane damage (NPN fluorescence) ([2]; concentrations lower than 25 µg/ml)
1 | Polymyxin B [PMB, reference compound] | loss of membrane potential | most pronounced effect | – | – | – | – | – | – | – | – | – | – | – | – | – | – | – | – | –
2 | H-RLNTTFRPLNFKMLRFWGQNRNIMKHRGQKVHFSLILSDCKTNKDCPKLRRANVRCRKSYCVPI [NCR335, cationic nodule-specific cysteine-rich peptide of Medicago truncatula, chemically synthetized, pI 11.22] | loss of membrane potential | equally efficient at 50, 25 and 12.5 µg/ml but provoked a weaker OM permeabilization than PMB | four | 50 µg/mL | effective | effective | increased surface roughness | 70 µg/mL | 50 µg/mL | 30 µg/mL | 20 µg/mL | 30 µg/mL | 12 µg/mL | 50 µg/mL | – | – | – | – | –
3 | CC[C@H](C)[C@H](NC(=O)[C@H](CS)NC(=O)CNC(=O)[C@H](CC(N)=O)NC(=O)[C@@H](N)CCCNC(=N)N)C(=O)N[C@H](C(=O)N[C@@H](CC(=O)O)C(=O)N1CCC[C@H]1C(=O)N[C@@H](CCCNC(=N)N)C(=O)N[C@@H](CS)C(=O)N1CCC[C@H]1C(=O)N[C@@H](Cc1ccc(O)cc1)C(=O)N[C@@H](CCC(N)=O)C(=O)N[C@@H](CCC(N)=O)C(=O)N[C@@H](CS)C(=O)N[C@@H](CCCNC(=N)N)C(=O)N[C@@H](CCCNC(=N)N)C(=O)N1CCC[C@H]1C(=O)N[C@@H](CC(C)C)C(=O)N[C@@H](Cc1ccc(O)cc1)C(=O)N[C@@H](CS)C(=O)N[C@@H](CCCNC(=N)N)C(=O)N[C@@H](CCCNC(=N)N)C(=O)N[C@@H](CCCNC(=N)N)C(=O)O)C(C)C [NCR247] (H-RNGCIVDPRCPYQQCRRPLYCRRR-OH; C-terminus assumed) | loss of membrane potential | – | two | – | effective | effective | increased surface roughness | – | – | – | – | – | – | – | no change in the average height | increased the surface roughness | even weaker | only a mild damage | no effect
4 | N#CC(C#N)=NNc1cccc(Cl)c1 [CCCP, carbonyl cyanide m-chlorophenyl hydrazone, reference compound] | loss of membrane potential | – | – | – | – | – | – | – | – | – | – | – | – | – | – | – | – | – | –
